Assay [1] addresses MBP (Escherichia coli, UniProt P0AEX9). Description: MicroScale Thermophoresis binding to MBP alone (control). The settings on record: MST. The text has this:
The above results prompted us to reason whether HUHS015-36 could directly target caspase-2 for activation without the requirement of any other mediator. To directly test this hypothesis, we tried to obtain purified caspase-2 protein. The preparation of full-length caspase-2 protein is known to be technically challenging. Meanwhile, the CARD domain of a caspase often plays the role in sensing upstream signals, as exemplified by the CARD of caspase-2 that is recruited by RAIDD through the CARD–CARD interaction for assembling the PIDDosome. […]
Figure 4. […] (A) The direct binding between HUHS015-36 and MBP-fused human caspase-2 pro-domain was detected by microscale thermophoresis (MST). […] The calculated dissociation constant (KD) is expressed as means ± s.d. from two determinations. […] ATP-based cell viability in panels (C–E) is expressed as mean ± s.d. from three technical replicates. […] TEXT PRINTED IN THE PICTURE: (A) HUHS015-36: MBP-CASP2(32–165) vs. HUHS015-36: KD (μmol/L): 22.05 ± 6.151; MBP vs. HUHS015-36: KD (μmol/L): Not detected
MicroScale thermophoresis (MST) experiments were carried out at 25°C in the PBST Buffer (PBS with 0.05%, v/v Tween 20) by using a Monolith 2020 (TNG) (MM-208). […] The temperature-induced changes in fluorescence intensity of each sample in the capillary thermophoresis tubes were recorded by the Monolith instrument. […]
(MST reads how a fluorescent partner responds to local heating, with and without ligand.)

Assay [2] deals with Jurkat cells. Description: Cell death and caspase-2 processing in Jurkat cells (endogenous caspase-2). It counts as cell-based, human. Particulars: 8 h. From the text:
(§1) We further examined whether HUHS015-derived compounds could activate endogenous caspase-2 in human cells. […] Complementing the CASP2^−/− Jurkat cells with exogenous caspase-2 restored HUHS015-36-induced apoptosis, in which caspase-2 was expectedly processed (Fig. 5A and 5B). We also profiled caspase-2 expression in a panel of 10 mouse tumor cell lines and observed highly variable expression levels (Fig. 5C). […] In B16-F10 (melanoma), LLC1 (Lewis lung carcinoma), MB49 (bladder carcinoma), KPC (pancreatic ductal adenocarcinoma), and 4T1 (mammary carcinoma) cells, caspase-2 was expressed at much lower levels (Fig. 5C). In contrast, EMT6 (mammary carcinoma), EL4 (T lymphoblast), and Hepa1-6 (hepatoma) feature robust caspase-2 expression, much higher than in Jurkat cells (Fig. 5C).
Figure 5. HUHS015-36 activates endogenous caspase-2 to induce apoptosis in Jurkat cells but not mouse cells. […] Lysates of 10 mouse cancer cell lines were analyzed by immunoblotting using indicated antibodies. […] ATP cell viability (A and D) is expressed as mean ± s.d. from three technical replicates. […]
(§2) Cell viability was measured by the ATP assay using the CellTiter-Glo® Luminescent Cell Viability Assay kit (Promega).
To stimulate caspase-2 activation, PIDD1-CC controlled by a Tet-On inducible system was introduced into indicated cells. […] Cell lysates were analyzed by standard immunoblotting.

The test system of assay [3] is EL4 cells. Description: Cell death and caspase-2 processing in EL4 cells. The assay is classed as cell-based, mouse. The settings on record: EL4, 8 h.
Source text: as §1
Figure 5. HUHS015-36 activates endogenous caspase-2 to induce apoptosis in Jurkat cells but not mouse cells. (A and B) HUHS015-36 activates endogenous caspase-2 and induces apoptosis in human Jurkat cells. […] Lysates of 10 mouse cancer cell lines were analyzed by immunoblotting using indicated antibodies. […] ATP cell viability (A and D) is expressed as mean ± s.d. from three technical replicates. […]
as §2

Assay [4] concerns mouse caspase-2-expressing HeLa cells. Description: Cell death and caspase-2 processing in HeLa TKO cells expressing mouse caspase-2. The assay is classed as cell-based. Particulars: high concentrations of HUHS015.
Source text: Figure 4. HUHS015 activates human caspase-2 directly through specific targeting of the interdomain linker of caspase-2. (A) The direct binding between HUHS015-36 and MBP-fused human caspase-2 pro-domain was detected by microscale thermophoresis (MST). MST profiles for raw binding signals and affinity (KD) measurement are shown. The calculated dissociation constant (KD) is expressed as means ± s.d. from two determinations. (B) Sequence alignment of the pro-domain (residues 1–169) of human and mouse caspase-2. CARD domain annotation is shown on top of the sequences. Identical residues are in red background and conserved ones are in red. Numbers of starting residues are indicated on the left. Different residues in the interdomain linker (residues 122–169) were highlighted with green color. (C) HUHS015 activates human but not mouse caspase-2. HeLa TKO cells rescued with human or mouse caspase-2 expression were treated with HUHS015 for the indicated time. […] ATP-based cell viability in panels (C–E) is expressed as mean ± s.d. from three technical replicates. […] TEXT PRINTED IN THE PICTURE: (A) HUHS015-36: MBP-CASP2(32–165) vs. HUHS015-36: KD (μmol/L): 22.05 ± 6.151; MBP vs. HUHS015-36: KD (μmol/L): Not detected […]
as §2

Turning to `Cc1cccc2nc(-n3nc4c(c3O)CCCC4)[nH]c12` [HUHS015-36], the KD result in assay [1] was “Not detected”. Moreover, the “caspase-2 processing and cell death” value in assay [2] (CASP2 knockout Jurkat cells) was “completely diminished”; in assay [2] (WT Jurkat cells), “induced evident caspase-2 processing and cell death”; in assay [3], “no caspase-2 processing and cell death were detected”.

As for `Cc1ccc2nc(-n3nc(C)c(Cc4ccccc4)c3O)[nH]c2c1` [HUHS015], in assay [4], the “apoptosis / caspase-2 processing” value is “no apoptosis”.

These data come from article PMC11637483, “Dissecting caspase-2-mediated cell death: from intrinsic PIDDosome activation to chemical modulation” (Protein & Cell, 2024).
